What all share (assay): NCI tumour cell line growth inhibition, 48 h
The subject of test [1] is HCT-116 colon.
The subject of test [2] is K-562 leukemia.
Test [3] relates to MCF7 breast.
The subject of test [4] is HOP-62 NSCLC.
Test [5] has as its system COLO 205 colon.
Test [6] concerns HCC-2998 colon.
Test [7] has as its system T-47D breast.
Test [8] concerns OVCAR-4 ovarian.
Test [9] deals with ACHN renal.

13 molecules from PubChem BioAssay (NCI) can be followed below.

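Cells were grown in 96-well plates and exposed to each compound for 48 hours at five concentrations; endpoints were interpolated linearly between bracketing concentrations, or set to the highest concentration if not reached. The concentration for 50% growth inhibition is given as GI50. TGI denotes the concentration required for complete inhibition of growth.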 Where a SMILES comes first, the peptide text is derived from it. The star is where a group is joined. Boc = CC(C)(C)OC(=O)* Some results are limits rather than exact numbers.

Regarding `COc1cc(S(=O)(=O)Nc2ccc(-c3csc(N4C(=O)C(Cl)C4c4ccccc4O)n3)cc2)ccc1Cl` (stereo not drawn), the TGI is over 100 µM in test [1]; over 100 µM in [2]; 54.2 µM in test [3]; over 100 µM in test [4]; 90.1 µM in test [5]; 38.5 µM in test [6]. Also, the TGI in test [7] is 29.5 µM; in [8] it was 70 µM; in test [9] it was over 100 µM.
On to `O=C1C=CC(=O)c2c1ccc1c3ccccc3n(Cc3ccccc3)c21`, for which the TGI in test [1] is 51.9 µM; in test [2], 10.6 µM; in [3] it was 45.6 µM; in test [4], over 100 µM; in [5] it was 38.9 µM; in test [6] it was over 79.5 µM. Also, the TGI was determined as 64.6 µM in [7], 18.1 µM in test [8] and 35.4 µM in [9].
Consider `O=CC(O)C(O)C(O)C(O)COC(=O)NCCCCC(=O)C(F)(F)C(F)(F)C(F)(F)C(F)(F)C(F)(F)C(F)(F)C(F)(F)F` (stereo not drawn), for which the TGI was 33.4 µM in [1]; 58.5 µM in test [2]; 34 µM in [3]; 62.8 µM in test [4]; 61.7 µM in [5]; 60.4 µM in test [6]. Also, the TGI in [7], in [8] and in test [9] was over 100 µM in each case.
Turning to `O=c1[nH]cc(N=Cc2cc(Cl)ccc2O)c(=O)[nH]1`, the TGI was over 100 µM in test [1]; over 100 µM in test [2]; over 100 µM in test [3]; 53.7 µM in [4]; 75.7 µM in [5]; over 100 µM in test [6]. Moreover, the TGI in test [7] came out at 60.7 µM; in test [8] it was 12.3 µM; in [9], 61.6 µM.
Consider `CN(C)C=N[C@@H](C(=O)O)c1ccccc1`, for which the TGI in [1], in test [2], in test [3], in test [4], in test [5] and in [6] was over 100 µM in each case. Further, the TGI in [7], in [8] and in test [9] was over 100 µM each time.
Turning to `c1ccc2c(Nc3ncco3)cccc2c1`, the TGI in test [1], in test [2], in test [3], in test [4], in test [5] and in test [6] was over 10 µM each time. The TGI in test [7], in [8] and in test [9] was over 10 µM in each case.
`COc1ccc(-n2c(N)c(C#N)c(C#N)c2-c2ccco2)cc1`: the TGI in test [1], in [2], in test [3], in [4], in test [5] and in [6] was over 100 µM in each case. The TGI in [7], in test [8] and in test [9] was over 100 µM in each case.
Turning to `COc1cc2nc(N3CCC[C@H](NC4=CC(=O)c5ccccc5C4=O)C3)nc(N)c2cc1OC`, the GI50 was 1.64 µM in test [1]; 0.348 µM in test [2]; 1.61 µM in test [3]; 2.26 µM in [4]; 1.91 µM in [5]; 1.97 µM in test [6]. In addition, the results for the GI50 in test [7], in test [8] and in test [9] were 1.9 µM, 1.61 µM and 1.84 µM, respectively. The TGI in test [1] is 4.81 µM; in test [2] it was 1.42 µM; in test [3] it was 3.3 µM; in test [4], 4.48 µM; in test [5], 3.47 µM; in test [6] it was 3.5 µM. In addition, the TGI in test [7] amounted to 3.63 µM; in [8] it was 3.19 µM; in [9], 3.47 µM.
As to `Cc1cc(C)nc(NS(=O)(=O)c2ccc(NNc3c4ccccc4nc4c(C(=O)Nc5ccc(S(=O)(=O)Nc6cc(C)on6)cc5)cccc34)cc2)n1`, the TGI was over 100 µM in [1]; 87.2 µM in test [2]; over 100 µM in test [3]; over 100 µM in test [4]; over 100 µM in test [5]; 50.2 µM in [6]. The TGI in test [7], in test [8] and in test [9] was over 100 µM each time.
Turning to `Cc1nc2ccc(Cl)cc2c2c1CCO2`, the TGI in test [1], in test [2], in [3], in [4], in test [5] and in [6] was over 100 µM in each case. The TGI in [7], in test [8] and in test [9] was over 100 µM each time.
Take `COC(=O)/C=C\n1nc(Br)c(=O)[nH]c1=O`: the TGI in test [2], in test [3], in [4], in test [5], in test [6] and in [7] was over 100 µM in each case. The TGI in test [8] and in [9] was over 100 µM in each case.
For `COC(=O)C(Cc1c[nH]c2ccccc12)NC(=O)C(Cc1c[nH]c2ccccc12)NC(=O)C(Cc1c[nH]c2ccccc12)NC(=O)C(Cc1c[nH]c2ccccc12)NC(=O)C(Cc1c[nH]c2ccccc12)NC(=O)C(Cc1c[nH]c2ccccc12)NC(=O)C(Cc1c[nH]c2ccccc12)NC(=O)OC(C)(C)C` (stereo not drawn) (Boc-WWWWWWW-OMe; configuration not given here), the TGI in test [1], in test [2], in test [3], in test [4], in [6] and in [7] was over 100 µM each time. Also, the TGI in test [8] and in test [9] was over 100 µM each time.
For `CCOC(=O)CCc1cn2cc(Br)nc(OC)c2n1`, the TGI in test [1], in test [2], in test [3], in test [4], in [5] and in [6] was over 100 µM throughout. For the same molecule, the TGI in test [7] and in [8] was over 100 µM each time.
